This is an account of results in US20240374558A1, “PREPARATION OF PHENE[…] […] STEREOISOMERS THEREOF AND PRECURSORS THEREOF” (priority 2022, published 2024).

“Also recorded” adds a separate entry of the source. Where a name gives a salt, the structure may show the parent alone.

In one series the target is T1, hERG (Homo sapiens, UniProt Q12809).
T1 construct: host or cells: CHO-K1
As to the kind of experiment: hERG Potassium Channel Assay, Qube APC. It counts as cell-based. Particulars: Antagonist mode; CHO-hERG; test compound. Here is the method: Where presented, IC50 values were determined by a non-linear, least squares regression analysis.
Recombinant HEK-293 cells stably transfected with human NavL.5 cDNA, recombinant HEK293 cell line expressing the human Cavl.2 (L-type voltage gated calcium channel, hCavl.2 alC/02a/a281, and recombinant CHO-K1 cells stably transfected with human hERG cDNA were used separately in each of these assays.
(§1) Ion Channels tested were Eurofins Panel Part Number: CPROFullQB2DR Voltage-Gated Sodium: HEK-Nav1.5 (Peak), HEK-Nav1.5 (Late, Antagonist) Voltage-Gated Potassium: HEK-Kv4.3/KChIP2, CHO-hERG, CHO-KCNQ1/minK Voltage-Gated Calcium: HEK-Cav1.2 Inward-Rectifying Voltage-Gated Potassium: HEK-Kir2.1.
hERG Potassium Channel Assay—Qube APC After whole cell configuration is achieved, the cells are held at −80 mV. Cells are held at this voltage for 50 ms to measure the leak current, which is subtracted from the tail current on-line. The cells are depolarized to +40 mV for 500 ms and then to −80 mV over a 100 ms ramp to elicit the hERG tail current. This paradigm is delivered once every 8s to monitor the current amplitude.
In general terms: hERG is a cardiac potassium channel; its block is linked to QT prolongation.

The target in the next series is T2, Kir2.1 (Homo sapiens, UniProt P63252).
T2 construct: host or cells: HEK
T2 sequence (P63252 1-427): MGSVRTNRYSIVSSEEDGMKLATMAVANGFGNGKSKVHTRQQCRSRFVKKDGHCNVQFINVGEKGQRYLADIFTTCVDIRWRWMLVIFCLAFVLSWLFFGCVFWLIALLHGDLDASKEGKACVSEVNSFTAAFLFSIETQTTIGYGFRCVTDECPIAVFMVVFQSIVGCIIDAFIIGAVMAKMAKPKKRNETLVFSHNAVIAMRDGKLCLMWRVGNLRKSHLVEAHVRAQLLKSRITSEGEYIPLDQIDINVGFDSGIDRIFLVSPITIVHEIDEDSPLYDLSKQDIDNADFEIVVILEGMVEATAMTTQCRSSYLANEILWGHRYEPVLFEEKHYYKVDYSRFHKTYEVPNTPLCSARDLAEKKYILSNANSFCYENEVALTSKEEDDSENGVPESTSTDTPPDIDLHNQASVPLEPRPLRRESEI
It counts as cell-based. The conditions noted are these: Antagonist mode; HEK-Kir2.1; test compound. As for the experimental part: Electrophysiological assays were conducted to profile three compounds ((R)-methylone, (S)-methylone, or racemic methylone) for activities on the ion channel targets specified below using the Qube electrophysiological platform. Where presented, IC50 values were determined by a non-linear, least squares regression analysis. Reference standards were run as an integral part of each assay to ensure the validity of the results obtained.
as §1
hKCNQ1/hminK Potassium Channel Assay—Qube APC After whole cell configuration is achieved, the cells are held at −80 mV. KCNQ1/minK currents are evoked by a 1000 ms pulse from −80 mV to 60 mV followed by a ramp from 60 mV to −80 mV over 115 ms with the outward peak currents measured upon depolarization of the cell membrane. This paradigm is delivered once every 15s to monitor the current amplitude. [0223] hKir2.1 Potassium Channel Assay—Qube APC After whole cell configuration is achieved, the cells are held at −30 mV. Kir2.1 currents are evoked by a single 500 ms pulse to -120 mV before returning to the holding potential of −30 mV. This paradigm is delivered once every 20s to monitor the current amplitude.

Series [1] has as its system rat forced swim test (FST). The series is described as follows: Rat forced swim test (FST). Particulars: single dose 10 mg/kg, IP, 30 min before testing. It counts as in vivo. Here is the method: The forced swim test (FST) is a classic model to assess the antidepressant-like activity of compounds that has been in use for over 40 years (Porsolt et al. (1977) Nature 266:730-732; Detke et al. (1995) Psychopharmacology 121:66-72). […] A single dose of 5 mg/kg methylone reduces immobility by approximately 50% compared to vehicle-treated controls, whereas a 15 mg/kg dose reduces immobility by nearly 100%. Accompanying changes in climbing and/or swimming behavior reflect noradrenergic and serotonergic activities of methylone, respectively.
All FST studies are performed and scored by an experimenter blind to treatment group and according to standard protocols. Briefly, rats are placed in a circular plexiglass container filled with water. Water temperature is maintained at 22-25° C. and changed for every animal. Day 1 (Training) consists of a 15 min acclimation trial, and Day 2 (Testing, 24 h later) consists of the 5 min test. A time sampling procedure is employed where animals are observed every 5 seconds for the duration of the test session (60 counts or 5 minutes) and scored for immobility (defined as the failure to struggle), swimming (defined as a circular movement around the tank), or climbing (defined as an upwards escape behavior). Data are expressed as the percent of the testing session (e.g., the number of immobility counts divided by 60). A p-value less than 0.05 indicates statistical significance after typical statistical analyses (e.g., unpaired t-test or ANOVA).
To determine that the prodrug and/or enantiomer has an antidepressant-like effect and to compare it to methylone, rats are treated with each compound 30 min prior to testing. Additional tests are run 24, 72, 168 hours post-dose or longer. Effects on Fear Extinction in a Model of Post-Traumatic Stress Disorder (PTSD)
Racemic methylone (10 mg/kg, IP) has a maximal antidepressant-like effect in the rat forced swim test (FST), reducing immobility by nearly 100% compared to vehicle treated controls. […]

T1 sequence (Q12809 whole entry): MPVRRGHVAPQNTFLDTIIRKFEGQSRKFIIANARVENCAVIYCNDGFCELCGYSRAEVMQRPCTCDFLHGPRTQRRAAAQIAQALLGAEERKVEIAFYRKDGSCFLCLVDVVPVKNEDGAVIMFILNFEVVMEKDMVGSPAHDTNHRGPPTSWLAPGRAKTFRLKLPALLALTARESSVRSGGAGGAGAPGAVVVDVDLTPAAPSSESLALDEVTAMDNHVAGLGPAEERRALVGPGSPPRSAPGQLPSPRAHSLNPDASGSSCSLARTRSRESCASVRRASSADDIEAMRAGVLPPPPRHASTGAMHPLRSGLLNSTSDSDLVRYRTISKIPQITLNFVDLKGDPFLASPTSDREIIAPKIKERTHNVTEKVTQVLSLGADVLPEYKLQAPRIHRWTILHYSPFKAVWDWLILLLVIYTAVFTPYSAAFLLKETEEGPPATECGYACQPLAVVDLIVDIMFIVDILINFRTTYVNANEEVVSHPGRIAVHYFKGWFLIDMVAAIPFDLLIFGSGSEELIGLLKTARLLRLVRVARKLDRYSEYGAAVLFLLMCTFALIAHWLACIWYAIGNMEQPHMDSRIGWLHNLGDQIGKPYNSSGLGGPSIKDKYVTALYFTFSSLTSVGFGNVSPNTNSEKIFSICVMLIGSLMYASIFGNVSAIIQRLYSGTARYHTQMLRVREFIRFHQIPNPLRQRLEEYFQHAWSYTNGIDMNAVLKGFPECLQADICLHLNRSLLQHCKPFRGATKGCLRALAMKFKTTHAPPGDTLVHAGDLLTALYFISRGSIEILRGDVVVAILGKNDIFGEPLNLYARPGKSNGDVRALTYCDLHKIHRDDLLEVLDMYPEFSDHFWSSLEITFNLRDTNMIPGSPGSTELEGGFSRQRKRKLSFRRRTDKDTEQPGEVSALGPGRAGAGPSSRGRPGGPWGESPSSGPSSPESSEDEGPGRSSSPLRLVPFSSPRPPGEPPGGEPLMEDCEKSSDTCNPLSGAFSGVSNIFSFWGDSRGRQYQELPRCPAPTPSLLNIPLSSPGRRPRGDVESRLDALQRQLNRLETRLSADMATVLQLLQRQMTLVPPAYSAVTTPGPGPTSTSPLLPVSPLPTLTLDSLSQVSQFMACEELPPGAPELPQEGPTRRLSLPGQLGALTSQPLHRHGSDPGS

Consider `CN[C@H](C)C(=O)c1ccc2c(c1)OCO2` [(R)-methylone], for which the “Estimated IC50” value on hERG and at Kir2.1 was “N/C (N/C indicates observed mean inhibition was <25%)” each time. Besides, in series [1], the “antidepressant-like effect (immobility) compared to vehicle” value is “no effect”.
As to `CN[C@@H](C)C(=O)c1ccc2c(c1)OCO2` [(S)-methylone], the “Estimated IC50” value on hERG and on Kir2.1 was “N/C (N/C indicates observed mean inhibition was <25%)” each time. Also, the “antidepressant-like effect (immobility) compared to vehicle” value in series [1] (10 mg/kg) was “Mimics the Rapid and Robust Antidepressant-like Activity of Racemic Methylone; also recorded: mimicked the rapid and robust antidepressant-like effect of racemic methylone”.
Consider `CNC(C)C(=O)c1ccc2c(c1)OCO2` (stereo not shown) [Methylone HCl, methylone HCl], for which the “Estimated IC50” value on Kir2.1 is given as “N/C (N/C indicates observed mean inhibition was <25%)”.
